The values that follow come from patent US7605175B2, “Inhibitors of cyclin-dependent kinases, compositions and uses related thereto” (GPC Biotech AG, priority 2001, dated 2009).

pIC50: −log10 of the molar value. Like-named read-outs stand apart in the source and are kept apart here.

Data set [1] has as its system HCT-116 cells. The data set can be described thus: Calcein AM viability assay, HCT-116. Type of data set: cell-based. The settings on record: Homo sapiens. In outline: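 Cells plated (1,000 HCT-116 in RPMI-1640/10% FCS; 4,000 IMR90 in MEM-alpha/10% FCS), adhered overnight, then given 7 doses of compound at 0-250 nM for 72 h at 37 °C. Viability read by Calcein AM fluorescence (ex 485, em 530) after 75 min; IC50 derived.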

Data set [2] relates to NCI panel of 60 cell lines. As to the kind of experiment: NCI panel of human tumor cell lines (SRB), Mean-Graph Mid-point. Type of data set: cell-based. The conditions noted are these: read-out: NCI panel MG-MID (Mean-Graph Mid-point, average IC50 over the whole cell panel). An excerpt: (§1) The evaluation of compounds at the National Cancer Institute in their panel of 60 cell lines provides a wealth of information regarding efficacy in a wide range of tumor types and genetic backgrounds. Included within this panel are cell lines derived from leukemia, melanoma and cancers of the lung, colon, brain, ovary, breast, prostate and kidney. Use of this panel provides a measure of the efficacy of compounds in cells with alterations in many genes that are associated with neoplastic transformation including p53 and Her2/Neu as well as those involved in metabolism and those which confer multi-drug resistance. The data generated in these cell lines with the protocol described below can be used to evaluate the activity of compounds.
Cells were grown in RPMI-1640 10% FCS and plated in 96 well micro-titer plates at densities ranging from 5,000 to 40,000 cells/well. The plates were incubated for 24 hours at 37° C., 5% CO2 for 24 hours. Media containing twice the desired final concentration of the compound (5 doses spanning 4 logs) was prepared and 100 μl was added to each well containing 100 μl media plus cells to yield the desired final concentration. The plates were then incubated for an additional 48 hours.
The effect of the compound on cellular viability was determined with the Sulforhodamine B (SRB) assay, which measures total protein. Cells were fixed with cold TCA to a final concentration of 10% and incubated at 4° C. for 60 minutes. The supernatant was discarded and the plates were washed five times with water and air-dried. SRB solution at […] in 1% acetic acid was added to each well and the plates were incubated for 10 minutes at room temperature. The plates were washed five times with 1% acetic acid and air-dried. The bound stain was solubilized with 10 mM trizma base and the absorbance was read on a plate reader at […].

Data set [3] concerns adriamycin resistant cell line (ADR-res). The data set can be described thus: NCI panel (SRB), adriamycin resistant cell line. Type of data set: cell-based. The settings on record: Homo sapiens.
Source text: as §1
Cells were grown in RPMI-1640 10% FCS and plated in 96 well micro-titer plates at densities ranging from 5,000 to 40,000 cells/well. The plates were incubated for 24 hours at 37° C., 5% CO2 for 24 hours. […]
The effect of the compound on cellular viability was determined with the Sulforhodamine B (SRB) assay, which measures total protein. […] The bound stain was solubilized with 10 mM trizma base and the absorbance was read on a plate reader at […].

Data set [4] can be described thus: Cytotoxicity in PBMCs (MTS assay). In kind it is cell-based, human. The conditions noted are these: human. The procedure: (§2) The activity of the certain compounds of the invention was evaluated in peripheral blood mononuclear cells (PBMCs) infected with the low passage, clinical isolate HIV-1 ROJO to generate a measure of the efficacy of these compounds in acutely infected cells. The use of these normal human cells allows an estimate of the therapeutic index of these compounds to be made. Fresh PBMCs from two donors were pooled and stimulated with PHA-P for 48-72 hours. The cells were then cultured in the presence of IL-2 to maintain the cell division initiated by the mitogenic signal. The virus was added at a multiplicity of infection of 0.1. The cells were cultured for 7 days post infection prior to the evaluation of efficacy. Viral replication was measured by the level of reverse transcriptase activity in the supernatant and cytotoxicity was measured with the MTS assay.
On the technique in general: Tetrazolium assays rely on reduction of a dye to a coloured formazan, in cell work by metabolically active cells.

Data set [5] concerns the target T1, Cdk4/cyclin D1 (Homo sapiens, UniProt P11802).
T1 construct: made in house; host or cells: Sf9 insect cells
As to the kind of experiment: Biochemical kinase assay Cdk4/cyclin D1. The settings on record: Table 6. The method in brief:
(§3)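 Sf9-expressed Cdk/cyclin heterodimers phosphorylate GST-Rb (residues 379–928, 40 μg) with 50 μM ATP plus [γ-33P]ATP, pH 7.5, 10% DMSO, 15 min at 30 °C. Compounds 1 nM–10 μM. 33P captured on glutathione-sepharose and scintillation-counted; activity relative to DMSO control after EDTA-background subtraction.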

For data set [6], the target named is T2, Cdk2/cyclin E (Homo sapiens, UniProt P24941).
T2 construct: made in house; host or cells: Sf9 insect cells
The data set can be described thus: Biochemical kinase assay Cdk2/cyclin E. The settings on record: Table 6. The method in brief: as §3

The target of data set [7] is T3, Cdc2/cyclin B (Homo sapiens, UniProt P06493).
T3 construct: purchased
T3 sequence (P06493 whole entry, species assumed): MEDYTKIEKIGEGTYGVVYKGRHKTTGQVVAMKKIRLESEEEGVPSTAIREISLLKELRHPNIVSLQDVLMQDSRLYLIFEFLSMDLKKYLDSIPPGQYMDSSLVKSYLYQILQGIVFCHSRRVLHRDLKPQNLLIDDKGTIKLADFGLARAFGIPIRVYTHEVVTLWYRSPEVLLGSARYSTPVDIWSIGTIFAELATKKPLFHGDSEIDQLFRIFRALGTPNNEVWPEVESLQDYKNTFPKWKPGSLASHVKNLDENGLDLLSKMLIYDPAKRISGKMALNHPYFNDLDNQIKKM
T3 sequence (P14635 whole entry partner, species assumed): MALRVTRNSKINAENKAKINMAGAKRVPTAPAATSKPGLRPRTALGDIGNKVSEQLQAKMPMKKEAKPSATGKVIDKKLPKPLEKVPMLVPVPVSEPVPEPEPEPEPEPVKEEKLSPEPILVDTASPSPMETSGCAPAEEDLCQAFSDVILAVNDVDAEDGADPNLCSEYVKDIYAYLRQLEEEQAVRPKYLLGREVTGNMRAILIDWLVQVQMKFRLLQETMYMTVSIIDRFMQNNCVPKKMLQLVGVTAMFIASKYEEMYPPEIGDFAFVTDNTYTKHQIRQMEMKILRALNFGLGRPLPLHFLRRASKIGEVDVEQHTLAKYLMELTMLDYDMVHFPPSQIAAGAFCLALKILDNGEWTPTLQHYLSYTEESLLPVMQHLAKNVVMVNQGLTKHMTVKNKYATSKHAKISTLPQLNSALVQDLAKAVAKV
The data set can be described thus: Biochemical kinase assay Cdc2/cyclin B. The conditions noted are these: Table 6. In outline:
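Radiometric TCA-precipitation assay measuring [γ-32P]ATP incorporation into Histone H1 (20 μg); 50 μM ATP, 10% DMSO, Tris pH 7.5 with MgCl2 and DTT. Compounds at 1 nM to 10 μM; reaction 20 min at 30 °C, stopped with EDTA/ATP. Activity relative to DMSO control after subtracting 50 mM EDTA background.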

Data set [8] deals with HIV-1 ROJO. As to the kind of experiment: Antiviral activity in PBMCs infected with HIV-1 ROJO (reverse transcriptase). Type of data set: cell-based. The conditions noted are these: for pIC50: Human immunodeficiency virus 1, PBMC, 168 h, read-out: IC50: 50% inhibition of virus replication measured by reverse transcriptase levels in the supernatant, HIV-1 ROJO, 7 days post infection. The procedure: as §2

Data set [9] relates to IMR90 cells. As to the kind of experiment: Calcein AM viability assay, IMR90. The conditions noted are these: Homo sapiens, IMR-90, 72 h, read-out: IMR90 viability IC50. Type of data set: cell-based. The method, then: The potency of Cdk inhibitors, as measured by loss of cellular viability, was determined with the Calcein AM assay (Molecular Probes). Calcein AM is a substrate of intracellular esterases, which is cleaved only in viable cells to generate a fluorescent product that can be quantified with a fluorescent plate reader. The fluorescent signal is proportional to the number of viable cells, and thus loss of signal in response to the exposure of cells to Cdk inhibitors correlates with a loss of viability. This assay can distinguish cell cycle arrest, in which cells may still by viable, from loss of viability and is thus well suited for the evaluation of Cdk inhibitors. A compound that is a potent cytotoxic, may cause significant loss of cell viability in such assay.
Cellular IC50's were determined in the human colorectal carcinoma cell line, HCT-116, and the normal human fibroblast, IMR90. Protein adjusted IC50's were also determined in HCT-116.
HCT-116 or IMR90 cells were recovered from sub-confluent plates by trypsinization and 1,000 or 4,000 cells, respectively, were plated in 24-well dishes and incubated overnight at 37° C., 5% CO2. […]
A 5 μM Calcein AM solution was prepared by dissolving a […] aliquot of Calcein (Molecular Probes catalog # C3100) in 50 μl DMSO. […] (protected from light) and the fluorescent signal was read on a fluorescent plate reader (excitation 485/20 and emission 530/25).

[10] abbreviates: HCT-116, non-protein adjusted, Table 6, read-out: HCT-116 viability IC50.
[11] abbreviates: HCT-116, 72 h, read-out: HCT-116 IC50 Viability.

T1 sequence (P11802 whole entry, species assumed): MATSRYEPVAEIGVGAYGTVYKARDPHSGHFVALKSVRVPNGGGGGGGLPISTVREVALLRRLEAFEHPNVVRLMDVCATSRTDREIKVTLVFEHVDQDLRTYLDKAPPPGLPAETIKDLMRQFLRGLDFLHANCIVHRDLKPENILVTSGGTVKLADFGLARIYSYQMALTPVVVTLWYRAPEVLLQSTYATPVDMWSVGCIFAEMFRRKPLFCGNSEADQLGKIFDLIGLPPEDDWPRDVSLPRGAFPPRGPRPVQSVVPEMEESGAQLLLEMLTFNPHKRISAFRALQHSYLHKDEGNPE
T1 sequence (P24385 whole entry partner, species assumed): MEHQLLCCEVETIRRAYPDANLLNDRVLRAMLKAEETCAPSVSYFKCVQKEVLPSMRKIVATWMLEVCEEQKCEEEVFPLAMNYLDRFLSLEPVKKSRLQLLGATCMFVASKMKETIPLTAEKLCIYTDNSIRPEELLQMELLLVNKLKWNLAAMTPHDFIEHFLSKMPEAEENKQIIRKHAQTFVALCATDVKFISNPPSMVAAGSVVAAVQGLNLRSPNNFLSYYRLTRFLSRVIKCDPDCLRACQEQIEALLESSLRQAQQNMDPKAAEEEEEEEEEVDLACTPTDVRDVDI

As for `CC(C)c1nn(-c2c(Cl)cc(Cl)cc2Cl)c2nc(Cc3ccc(OCCN4CCOCC4)cc3)[nH]c(=O)c12` [A], the pIC50 (usually −log10 of the IC50, conventionally taken in molar units) in data set [1] (HCT-116, plus 1 mg/ml alpha acidic glycoprotein and 45 mg/ml human serum albumin, read-out: HCT-116 IC50 Protein adjusted) is more than 6.00; in [2] it was more than 7.00; in data set [3] it was more than 6.00.
Regarding `CC(C)c1nn(-c2c(Cl)cccc2Cl)c2nc(Cc3ccc(OCCN4CCOCC4)c(O)c3)[nH]c(=O)c12` [Compound A32], in data set [4], the half-maximal cytotoxic concentration (CC50) (in general, the concentration giving 50% cytotoxicity) at 7 days was less than 100 nM. Also, the pIC50 in data set [5] is more than 7.00; in [6], more than 7.00; in data set [1] (setting [10]), more than 7.00; in data set [7], more than 6.00; in data set [8], more than 8.00. For the same compound, in data set [8], the “TI: TC50/IC50” value is more than 10.
`CC(C)c1nn(-c2c(Cl)cc(Cl)cc2Cl)c2nc(Cc3ccc(OCCO)cc3)[nH]c(=O)c12` [Compound A61]: the CC50 at 7 days in data set [4] is less than 100 nM. Also, the negative logarithm of the IC50 (pIC50) in data set [5] is more than 6.00; in data set [6] it was more than 7.00; in data set [7] it was more than 7.00; in data set [8], more than 8.00. For the same compound, in data set [8], the “TI: TC50/IC50” value was more than 10.
`CC(C)c1nn(-c2c(Cl)cc(Cl)cc2Cl)c2nc(Cc3ccc(OCC(C)(C)O)cc3)[nH]c(=O)c12` [Compound A64]: the CC50 at 7 days in data set [4] was less than 100 nM. Also, the pIC50 in data set [5] was more than 6.00; in data set [6], more than 7.00; in [1] (setting [10]), more than 7.00; in data set [7], more than 7.00; in [8] it was more than 8.00. In addition, the “TI: TC50/IC50” value in [8] is given as more than 10.
Regarding `CC(C)c1nn(-c2c(Cl)cccc2Cl)c2nc(Cc3ccc(OP(=O)(O)O)cc3)[nH]c(=O)c12` [Compound B], the pIC50 in [1] (setting [11]) and in data set [9] was more than 6.00 throughout.
With `CC(C)c1nn(-c2c(Cl)cccc2Cl)c2nc(Cc3ccc(CN4CCCC4)c(O)c3)[nH]c(=O)c12.Cl` [Compound C3], the CC50 at 7 days in data set [4] was less than 100 nM. The pIC50 in data set [6] was more than 7.00; in data set [1] (setting [10]), more than 7.00; in data set [8], more than 8.00. Moreover, the “TI: TC50/IC50” value in data set [8] was more than 10.
Regarding `CC(C)c1nn(-c2c(Cl)cc(Cl)cc2Cl)c2nc(Cc3ccc(CNC(CO)CO)n3C)[nH]c(=O)c12.Cl` [Compound C4], the half-maximal cytotoxic concentration (CC50) at 7 days in data set [4] is less than 100 nM. Also, the pIC50 in data set [6] was more than 8.00; in data set [1] (setting [10]), more than 7.00; in data set [8], more than 7.00. Further, the “TI: TC50/IC50” value in data set [8] is recorded as more than 1.
`O=C(Nc1cccc2c1C(=O)c1c-2n[nH]c1-c1ccc(OP(=O)(O)O)cc1)NN1CCOCC1` [J]: the results for the pIC50 in [1] (setting [11]) and in data set [9] were more than 6.00 and more than 7.00, respectively.
